Assay [1] has as its system Dopamine DBS FAM(+T)/BHQ-1 (term.) (DNA, aptamer, 6-FAM-modified dT (click, i6-FAMK) at 33) AAATACAACAAGAAAAAACTCTCGGGACGACGTCCAGTTTGAAGGTTCGTTCGCAGGTGTGGAGTGACGTCGTCCC
The assay is described as follows: fluorescence melting. Particulars: 1x PBS, 2 mM MgCl2; pH 8.0; 50 µM dopamine; derived from two Tm (48.4, 48.3); displacement strand 1:4.

The subject of assay [2] is Dopamine MAB Cy3–BHQ-1 (DNA, aptamer) ACGCCAGTTTGAAGGTTCGTTCGCAGGTGTGGAGTGACGT
The assay is described as follows: fluorescence quenching titration (molecular aptamer beacon). Particulars: 1x PBS, 2 mM MgCl2; apparent; pH 8.0, 25 °C.

Assay [3] concerns Dopamine DBS Cy3/Cy5 – No (position 3) (DNA, aptamer) AAATACAACAAGAAAAAACTCTCGGGACGACGACCAGTTTGAAGGTTCGTTCGCAGGTGTGGAGTGACGTCGTCCC
The assay is described as follows: fluorescence strand-displacement titration. The note with it: 1x PBS, 2 mM MgCl2; apparent; pH 8.0, 25 °C; displaced 42-nt 3'-biotin strand without quencher; 565 nm readout.

Assay [4] relates to Dopamine DBS Cy3–BHQ-1 (Position 3) (DNA, aptamer) AAATACAACAAGAAAAAACTCTCGGGACGACGACCAGTTTGAAGGTTCGTTCGCAGGTGTGGAGTGACGTCGTCCC
Description: fluorescence strand-displacement titration. The note with it: 1x PBS, 2 mM MgCl2; apparent; pH 8.0, 25 °C; displaced 42-nt strand, internal BHQ-1 (position 3), 4 eq.

The test system of assay [5] is Dopamine DBS FAM(+T)/BHQ-1 (int.) (DNA, aptamer, 6-FAM-modified dT (click, i6-FAMK) at 33) AAATACAACAAGAAAAAACTCTCGGGACGACGTCCAGTTTGAAGGTTCGTTCGCAGGTGTGGAGTGACGTCGTCCC
The assay is described as follows: fluorescence melting. The note with it: 1x PBS, 2 mM MgCl2; pH 8.0; 50 µM dopamine; derived from two Tm (49.1, 49.3); displacement strand 1:4.

Assay [6] relates to Dopamine MAB FAM–Dab (DNA, aptamer, dabcyl-5-methyl-dC at 41 (3' end)) ACGCCAGTTTGAAGGTTCGTTCGCAGGTGTGGAGTGACGTC
The assay is described as follows: fluorescence melting. Particulars: 1x PBS, 2 mM MgCl2; derived from two Tm (41.7 ± 0.2, 36.9 ± 0.1); 50 µM dopamine, pH 8.0.

The test system of assay [7] is Dopamine DBS FAM(+T)–IABkFQ (DNA, aptamer, 6-FAM-dT (azide click) at 33) AAATACAACAAGAAAAAACTCTCGGGACGACGTACCAGTTTGAAGGTTCGTTCGCAGGTGTGGAGTGACGTCGTCCC
The assay is described as follows: fluorescence strand-displacement titration. The note with it: 1x PBS, 2 mM MgCl2; apparent; pH 8.0, 25 °C; displaced 42-nt 5'-IABkFQ strand, 4 eq.

In assay [8] the test system is Dopamine DBS Cy3–BHQ-1 (Position 2) (DNA, aptamer) AAATACAACAAGAAAAAACTCTCGGGACGACGACCAGTTTGAAGGTTCGTTCGCAGGTGTGGAGTGACGTCGTCCC
The assay is described as follows: fluorescence strand-displacement titration. Particulars: 1x PBS, 2 mM MgCl2; apparent; pH 8.0, 25 °C; displaced 42-nt strand, internal BHQ-1 (position 2), 4 eq.

Assay [9] concerns Dopamine DBS Cy3(+T)–BHQ-1 Internal (DNA, aptamer) AAATACAACAAGAAAAAACTCTCGGGACGACGTACCAGTTTGAAGGTTCGTTCGCAGGTGTGGAGTGACGTCGTCCC
The assay is described as follows: fluorescence strand-displacement titration. Particulars: 1x PBS, 2 mM MgCl2; apparent; pH 8.0, 25 °C; displaced 42-nt strand, internal BHQ-1, 4 eq.

In assay [10] the test system is Dopamine DBS Cy3(+T)–BHQ-1 (DNA, aptamer) AAATACAACAAGAAAAAACTCTCGGGACGACGTACCAGTTTGAAGGTTCGTTCGCAGGTGTGGAGTGACGTCGTCCC
Description: fluorescence strand-displacement titration. The note with it: 1x PBS, 2 mM MgCl2; apparent; pH 8.0, 25 °C; displaced 42-nt 5'-BHQ-1 strand, 4 eq.

Assay [11] relates to Dopamine MAB Cy3–BHQ-2 (DNA, aptamer) ACGCCAGTTTGAAGGTTCGTTCGCAGGTGTGGAGTGACGT
Description: fluorescence melting. The note with it: 1x PBS, 2 mM MgCl2; derived from two Tm (49.4 ± 0.8, 53.3 ± 0.8); 50 µM dopamine, pH 8.0.

Assay [12] deals with Dopamine MAB FAM–BHQ-1 (DNA, aptamer) ACGCCAGTTTGAAGGTTCGTTCGCAGGTGTGGAGTGACGT
Description: fluorescence quenching titration (molecular aptamer beacon). The note with it: 1x PBS, 2 mM MgCl2; apparent; pH 8.0, 25 °C.

The test system of assay [13] is Dopamine MAB Cy3–BHQ-1 (DNA, aptamer) ACGCCAGTTTGAAGGTTCGTTCGCAGGTGTGGAGTGACGT
Description: fluorescence melting. The note with it: 1x PBS, 2 mM MgCl2; derived from two Tm (49.5 ± 0.3, 52.7 ± 0.8); 50 µM dopamine, pH 8.0.

Assay [14] concerns Dopamine DBS Cy3–BHQ-1 (Position 1/Adjacent) (DNA, aptamer) AAATACAACAAGAAAAAACTCTCGGGACGACGACCAGTTTGAAGGTTCGTTCGCAGGTGTGGAGTGACGTCGTCCC
The assay is described as follows: fluorescence strand-displacement titration. The note with it: 1x PBS, 2 mM MgCl2; apparent; pH 8.0, 25 °C; displaced CGTCGTCCCCTCTTCACATATCTATTTTTTCTTGTTGTATTT, 4 eq, 5'-BHQ-1.

Assay [15] concerns Dopamine DBS Cy3(+T)–IABkFQ (DNA, aptamer) AAATACAACAAGAAAAAACTCTCGGGACGACGTACCAGTTTGAAGGTTCGTTCGCAGGTGTGGAGTGACGTCGTCCC
The assay is described as follows: fluorescence strand-displacement titration. Particulars: 1x PBS, 2 mM MgCl2; apparent; pH 8.0, 25 °C; displaced 42-nt 5'-IABkFQ strand, 4 eq.

SMILES strings stand for the structures.

As to `NCCc1ccc(O)c(O)c1`, the Tm in [1] was -0.1 °C; in assay [5] it was 0.2 °C; in assay [6], -4.8 °C; in assay [11] it was 3.9 °C; in [13], 3.2 °C. In addition, the Kd in [2] stood at 53.8 ± 8.8 µM; in assay [3], 9.9 ± 3.6 µM; in assay [4] it was 2.3 ± 0.3 µM; in assay [7] it was 19.6 ± 0.9 µM; in assay [8], 2.2 ± 0.7 µM; in assay [9], 17.3 ± 1.3 µM. Besides, the Kd was 76.7 ± 5.5 µM in assay [10], 3.0 ± 0.1 µM in [12], 229.9 ± 22.0 µM in assay [14] and 41.8 ± 5.0 µM in assay [15].

The values are drawn from article PMC12700101 (2025).
